From publication PMC6009935 (Journal of Enzyme Inhibition and Medicinal Chemistry, 2017)
Where two headings read alike, the source gives them in different places.

Key:
[1] = biological target: T1, cannabinoid receptors (CBR) (Rattus norvegicus, UniProt P20272); assay: biochemical; type: binding
T1 construct: a: performed in rat whole brain membrane homogenates; from tissue; host or cells: Wistar rat whole brain membrane homogenate
Experimental: Tris-HCl, EGTA, NaCl, MgCl2 x 6H2O, GDP, the GTP analogue GTPγS, were purchased from Sigma-Aldrich (Budapest, Hungary). Fatty acid free bovine serum albumin (BSA) was purchased from Serva (Heidelberg, Germany). Naloxone was kindly provided by the company Endo Laboratories DuPont de Nemours (Wilmington, DE, USA). HS665 was provided by Schmidhammer’s group (University of Innsbruck, Austria). […]
purchased from Tocris Bioscience (Bristol, UK).
DMSO. All compounds were stored in 1 mM stock solution at -20 °C. The radiolabelled GTP analogue, [35S]GTPγS (specific activity: 1000 Ci/mmol) were purchased from Hartmann Analytic (Braunschweig, Germany). [3H]DAMGO (specific activity: 38.8 Ci/mmol),12 [3H]IleDelt II (specific activity: 19,6 Ci/mmol), [3H]WIN55,212-2 (specific activity: 13,1 Ci/mmol) and [3H]HS665 (specific activity: 36.62 Ci/mmol),3 were radiolabeled by the Laboratory of Chemical Biology group in BRC (Szeged, Hungary).
For membrane homogenate preparations male and female Wistar rats (250-300 g body weight) and male guinea pigs (~700 g body weight, LAL/HA/BR strain) were used. Rats were housed in the local animal house of BRC (Szeged, Hungary), while guinea pigs were housed in LAB-ÁLL Bt.
(Budapest, Hungary). All the animals were kept in a temperature controlled room (21-24 °C) under a 12:12 light and dark cycle and were provided with water and food ad libitum. All housing and experiments were conducted in accordance with the European Communities Council Directives (2010/63/EU) and the Hungarian Act for the Protection of Animals in Research (XXVIII.tv. 32.§).
The total number of animals as well as their suffering was minimized.
Rat and guinea pig brain membrane homogenate preparation for binding assays Rats and guinea pigs were decapitated and their brains were quickly removed. The brains were prepared for membrane preparation as previously described,4 and partly used for binding experiments and partly were further prepared for the [35S]GTPγS binding experiments. Briefly the brains were homogenized, centrifuged in ice-cold 50 mM Tris-HCl (pH 7.4) buffer and incubated at 37 °C for 30 min in a shaking water-bath. After incubation the centrifugation was repeated as described above and the final pellet was suspended in 50 mM Tris-HCl pH 7.4 buffer containing 0.32 M sucrose, and stored at -80 °C. For the [35S]GTPγS binding experiments the final pellet of rat […]
brain membrane homogenate was suspended in ice-cold TEM (Tris-HCl, EGTA, MgCl2) and stored at -80 °C for further use.
Radioligand competition binding experiments
Aliquots of frozen rat brain membrane homogenates were centrifuged (18 000 rpm, 20 min, 4 °C) to remove sucrose and the pellets were suspended in 50 mM Tris-HCl buffer (pH 7.4). Membranes containing 0.4-0.8 mg/mL of protein were incubated in a final volume of 1 mL in the presence of unlabeled 5, 10 and 9 in increasing concentrations (10-11-10-5 M) in the presence of the appropriate radioligand in ~1 nM concentrations at certain temperature and amount of time depending on the radioligand ([3H]DAMGO and [3H]IleDelt II: 35 °C for 45 min; [3H]HS665: 30 °C, 45 min; [3H]WIN55,212-2: 30 °C for 60 min). Experiments performed with [3H]HS665 where incubated […]
more kappa receptors than the rat brain), while the rest of the radioligands were incubated together with rat whole brain membrane homogenates. Additionally, in experiments performed with […]
increasing concentrations (10-11-10-5 M) together with 50 mM Tris/HCl, 2.5 mM EGTA, 5 mM MgCl2 and 0.5 mg/mL fatty acid free BSA (pH 7.4). The level of non-specific binding was […]
binding was determined in the absence of unlabeled compounds. The reaction was terminated by rapid filtration under vacuum (Brandel M24R Cell Harvester), and washed three times with 5 mL ice-cold 50 mM Tris-HCl or 50 mM Tris/HCl, 2.5 mM EGTA, 5 mM MgCl2, 0.5 % BSA (pH 7.4) in case of [3H]WIN55,212-2. The filtration was accomplished through Whatman GF/C ([3H]DAMGO, [3H]IleDelt II and [3H]HS665) or GF/B ([3H]WIN55,212-2) glass fibers. In case of […]

G-protein = assay: Functional [35S]GTPγS binding assay on rat brain membrane homogenates; type: biochemical; conditions: rat brain membrane homogenates; for Emax ± S.E.M. (maximal G-protein efficacy): basal activity = 100%; for LogEC50 ± S.E.M. (ligand potency): logarithm of EC50, negative sign printed
Experimental: The experiments were performed by [35S]GTPγS binding assays to control the GDP to GTP exchange of the α-subunit of Gi-protein. […] We examined the opioid receptor binding affinity of 5 in competition binding experiments, using opioid receptor selective radioligands. […]
Functional [35S]GTPγS binding experiments
The functional [35S]GTPγS binding experiments were performed as previously described,5,6 with modifications. Briefly the rat brain membrane homogenates containing ~10 µg/mL protein were incubated at 30 °C for 60 min in Tris-EGTA buffer (pH 7.4) composed of 50 mM Tris-HCl, 1 mM EGTA, 3 mM MgCl2, 100 mM NaCl, containing 20 MBq/0.05 cm3 [35S]GTPγS (0.05 nM) and […]
compound 9 together with excess GDP (30 µM) in a final volume of 1 mL. Total binding was measured in the absence of test compounds, non-specific binding was determined in the presence of 10 µM unlabelled GTPγS. The bound and unbound [35S]GTPγS was separated as described in the […]
competition binding assays section through Whatmann GF/B glass fibers. The radioactivity of the filters was also detected as described above. [35S]GTPγS binding experiments were performed in triplicates and repeated at least three times.
The specific binding of all radiolabeled compounds was calculated by the subtraction of non-specific binding from total binding and was given in percentage. The data was normalized to total specific binding, which was settled 100%, which in case of [35S]GTPγS also represents the basal activity of the G-protein. Experimental data were presented as means ± S.E.M in the function of the applied ligand concentration range in logarithm form. Points were fitted with the professional curve fitting program, GraphPad Prism 5.0 (GraphPad Prism Software Inc., San Diego, CA), using non-linear regression. In the radioligand competition binding assays the ‘One-site competition’, while in [35S]GTPγS binding assays the ‘Sigmoid dose-response’ equation was applied to determine IC50 (unlabeled ligand affinity) and the maximum G-protein efficacy (Emax) and ligand potency (EC50), respectively. For IC50 and EC50 values standard error is only given in their logarithm form by the curve fitting program due to the data representation. In competition binding experiments the Ki value was calculated according to Cheng-Prusoff equation.7 […]
binding assays. In figure B, 5 is indicated again for better comparison. Figures represents the specific binding of [35S]GTPγS in percentage in the presence of increasing concentrations (10-10-10-5 M) of the indicated ligands in rat brain membrane homogenates. “Basal” on the x-axis indicates the basal activity of the monitored G-protein, which is measured in the absence of the compounds and also represents the total specific binding of [35S]GTPγS. The level of basal activity was defined as 100% and is presented with a dotted line. Points represent means ± S.E.M. for at least three experiments performed in triplicate.

[2] = rat whole brain membrane homogenates, Cheng-Prusoff, read-out: Ki, [3H]WIN55,212 (CBR)
[3] = rat whole brain membrane homogenates, logarithm of IC50, negative sign printed, read-out: logIC50 ± S.E.M., [3H]WIN55,212 (CBR) (converted)

T1 sequence (P20272 whole entry): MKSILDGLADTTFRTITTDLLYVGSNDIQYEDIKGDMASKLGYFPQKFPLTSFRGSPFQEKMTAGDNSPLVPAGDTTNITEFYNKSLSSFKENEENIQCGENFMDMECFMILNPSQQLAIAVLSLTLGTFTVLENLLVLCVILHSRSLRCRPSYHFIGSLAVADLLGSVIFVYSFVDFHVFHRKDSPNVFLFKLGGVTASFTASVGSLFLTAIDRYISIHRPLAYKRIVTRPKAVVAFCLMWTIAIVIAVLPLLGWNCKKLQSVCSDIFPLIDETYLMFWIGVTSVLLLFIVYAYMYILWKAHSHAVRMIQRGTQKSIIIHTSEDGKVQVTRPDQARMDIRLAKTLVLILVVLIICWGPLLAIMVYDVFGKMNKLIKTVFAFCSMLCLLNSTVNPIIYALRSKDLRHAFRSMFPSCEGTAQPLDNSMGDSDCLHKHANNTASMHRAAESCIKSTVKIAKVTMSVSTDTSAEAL

Structure (SMILES) | IC50 [1] [nM] | Ki [1] [nM] | EC50 (G-protein) [nM] | Emax ± S.E.M. (maximal G-protein efficacy) (G-protein) [%] | LogEC50 ± S.E.M. (ligand potency) (G-protein) | Ki [1, 2] [nM] | IC50 [1, 3] [nM]
Cc1c(C(=O)NN2CCCCC2)nn(-c2ccc(Cl)cc2Cl)c1-n1cccc1 [Compound 1] | 195 | 126 | 1620 | 26 ± 5.27 | −5.78 ± 0.11 | – | –
Cc1c(C(=O)N2CCN(C(=O)OCc3ccccc3)CC2)nn(-c2ccc(Cl)cc2Cl)c1-n1cccc1 [Compound 2] | – | – | 1540 | 22.95 ± 4.3 | −5.81 ± 0.09 | 710 | 1100
Cc1c(C(=O)NC2CCN(C(=O)OC(C)(C)C)CC2)nn(-c2ccc(Cl)cc2Cl)c1-n1cccc1 [Compound 3] | – | – | 2690 | 12.78 ± 8.48 | −5.57 ± 0.15 | 193 | 295
Cc1c(C(=O)NC2CCCCC2)nn(-c2ccc(Cl)cc2Cl)c1-n1cccc1 [Compound 4] | 575 | 370 | 1870 | 55.95 ± 8.44 | −5.72 ± 0.3 | – | –
Cc1c(C(=O)NN2CCCCC2)nn(-c2ccc(Cl)cc2Cl)c1-c1ccc(Cl)cc1 [Rimonabant, reference compound] | – | – | 2200 | 17.5 ± 5.72 | −5.65 ± 0.12 | – | –
